In PubChem BioAssay (NCI):
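96-well plates; 48 h exposure; 5 concentrations. Endpoints by linear interpolation between flanking doses. Not reached: highest tested concentration assigned. Here, GI50 denotes the concentration required for 50% inhibition of growth. The concentration for full growth arrest is given as TGI.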

Legend:
Assay in all cases: NCI-60 cell line screen, 48 h
A498 renal = test system: A498 renal
A549 NSCLC = test system: A549 NSCLC
HS 578T breast = test system: HS 578T breast
LOX IMVI melanoma = test system: LOX IMVI melanoma
NCI-H226 lung = test system: NCI-H226 lung
NCI-H460 lung = test system: NCI-H460 lung
NCI-H522 lung = test system: NCI-H522 lung
NCI/ADR-RES ovarian = test system: NCI/ADR-RES ovarian
SF-295 CNS = test system: SF-295 CNS
U251 CNS = test system: U251 CNS

Row | SMILES | GI50 (A498 renal) | TGI (A498 renal) | GI50 (A549 NSCLC) | TGI (A549 NSCLC) | GI50 (HS 578T breast) | TGI (HS 578T breast) | GI50 (LOX IMVI melanoma) | TGI (LOX IMVI melanoma) | GI50 (NCI-H226 lung) | TGI (NCI-H226 lung) | GI50 (NCI-H460 lung) | TGI (NCI-H460 lung) | GI50 (NCI-H522 lung) | TGI (NCI-H522 lung) | GI50 (NCI/ADR-RES ovarian) | TGI (NCI/ADR-RES ovarian) | GI50 (SF-295 CNS) | TGI (SF-295 CNS) | GI50 (U251 CNS) | TGI (U251 CNS)
1 | CC(C)[C@@H]1C=C2CC[C@H]3[C@](C)(CN)CCC[C@]3(C)[C@H]2CC1 | 2.13 µM | 15 µM | 3.07 µM | 11 µM | 4.69 µM | 20.1 µM | 1.52 µM | 2.85 µM | 15.2 µM | 34.4 µM | 1.8 µM | 3.34 µM | 1.91 µM | 4.16 µM | 2.62 µM | 7.32 µM | 1.9 µM | 4.29 µM | 1.76 µM | 3.28 µM
2 | CCN1C(=O)N(c2ccccc2)C2NC(=S)N(/N=C/C=C/c3ccccc3OC)C21 (centres undefined) | 0.0311 µM | 0.653 µM | 0.121 µM | > 100 µM | 0.0858 µM | > 100 µM | 0.109 µM | > 69.5 µM | 0.3 µM | > 40 µM | 0.111 µM | > 36.2 µM | 0.0409 µM | 0.189 µM | 0.0782 µM | > 72.4 µM | 0.0749 µM | 25.7 µM | 0.106 µM | > 43.8 µM
3 | CCN(Cc1ccc(F)cc1)c1cc(Cl)c(CO)c(Cl)c1 | 1.37 µM | 6.39 µM | 12.3 µM | 29.1 µM | 12.2 µM | 33.4 µM | 14.7 µM | 29.3 µM | 3.69 µM | 17.1 µM | 11.8 µM | 25.9 µM | 10.8 µM | 25.7 µM | 13.7 µM | 31.4 µM | 10.9 µM | 25.6 µM | 10.5 µM | 22.6 µM
4 | O=C(O)c1ccc2c(c1C(=O)O)C(=O)OC2(c1ccc(O)cc1)c1ccc(O)cc1 | – | > 100 µM | – | > 100 µM | – | > 100 µM | – | > 100 µM | – | > 100 µM | – | > 100 µM | – | > 100 µM | – | > 100 µM | – | > 100 µM | – | > 100 µM
5 | CCOC(=S)SCC(=O)O | – | > 100 µM | – | > 100 µM | – | > 100 µM | – | > 100 µM | – | > 100 µM | – | > 100 µM | – | > 100 µM | – | > 100 µM | – | > 100 µM | – | > 100 µM
6 | CCN(C(=O)N1CCN(c2cc3c(cc2F)c(=O)c(C(=O)O)cn3C2CC2)CC1)c1nc(-c2ccc(Cl)cc2)cs1 | 0.0298 µM | 1.6 µM | 1.01 µM | > 100 µM | 1.26 µM | 13 µM | 0.37 µM | 1.63 µM | 1.79 µM | 5.2 µM | 0.96 µM | > 100 µM | 1.8 µM | > 26.5 µM | 2.07 µM | 13.7 µM | 0.888 µM | 6 µM | 1.15 µM | 29.7 µM
7 | COC[C@H]1Cn2cc(-c3nc(Nc4ccnn4C)ncc3C)nc2C(=O)N1Cc1ccc(F)c(F)c1 | 0.0405 µM | 0.291 µM | 3.23 µM | > 100 µM | 18.5 µM | > 100 µM | 0.119 µM | > 100 µM | 25.8 µM | > 100 µM | 12.3 µM | > 100 µM | – | > 100 µM | > 100 µM | > 100 µM | > 100 µM | > 100 µM | – | > 100 µM
8 | O=C(CCCSc1nc(-c2ccccc2)cc(-c2ccccc2)n1)NO | 1.12 µM | 3.1 µM | 2.63 µM | 10.1 µM | 2.32 µM | 27 µM | 2.26 µM | 5.47 µM | 1.19 µM | 9.28 µM | 0.488 µM | 11.2 µM | 1.86 µM | 9.51 µM | 0.305 µM | 10.5 µM | 2.17 µM | 6.98 µM | 1.24 µM | 3.2 µM
9 | Nc1ccc(C2=NNC(=O)Cc3cc4c(cc32)OCCO4)cc1Cl | 0.944 µM | 19.9 µM | 2.95 µM | > 50 µM | 4.33 µM | 25 µM | 2.95 µM | > 50 µM | 8.12 µM | > 50 µM | 1.94 µM | > 50 µM | 2.02 µM | 23.5 µM | 1.3 µM | 7.32 µM | 2.49 µM | > 50 µM | 3.68 µM | > 50 µM
10 | CC(=O)CC(OC(C)=O)C1=CCC2C(CC1C)OC(=O)C2C (centres undefined) | – | > 100 µM | – | > 100 µM | – | > 100 µM | – | > 100 µM | – | > 100 µM | – | > 100 µM | – | > 100 µM | – | > 100 µM | – | > 100 µM | – | > 100 µM
11 | CCOC(=O)C1=C(C)N(c2ccc(F)cc2F)[C@]2(C#N)C(O)=C(Cl)C(Cl)=C(O)[C@]12C#N | > 100 µM | > 100 µM | > 100 µM | > 100 µM | > 100 µM | > 100 µM | > 100 µM | > 100 µM | > 100 µM | > 100 µM | > 100 µM | > 100 µM | > 100 µM | > 100 µM | 5.61 µM | > 100 µM | > 100 µM | > 100 µM | > 100 µM | > 100 µM
12 | Nc1n[nH]c2cc(F)c([C@@H]3Nc4ccc5[nH]ncc5c4[C@H]4C5CCC(C5)[C@@H]34)cc12 (some centres undefined) | 0.0787 µM | 0.288 µM | 0.201 µM | > 50 µM | 0.173 µM | 11.6 µM | 0.158 µM | 6.47 µM | 0.192 µM | 3.38 µM | 0.177 µM | 5.86 µM | 0.106 µM | 2.08 µM | 0.159 µM | 0.746 µM | 0.12 µM | 6.03 µM | 0.189 µM | 9.3 µM
13 | COc1cc(-c2ccc3cc(OC)c(OC)c(OC)c3c2)cc(OC)c1OC | 11.1 µM | 91.8 µM | 7.66 µM | > 100 µM | 15.4 µM | > 100 µM | > 100 µM | > 100 µM | > 100 µM | > 100 µM | – | – | 9.54 µM | > 100 µM | 7.91 µM | > 100 µM | – | – | 15.7 µM | > 100 µM
